Experimental data: PMC3318891, “Insights into the In Vivo Regulation of Glutamate Dehydrogenase from the Foot Muscle of an Estivating Land Snail” (Enzyme Research, 2012)
One block for each molecule: values may come before it.

What was measured:
Assay type in all cases: biochemical
[1] = test system: T1, 10 day estivated Otala lactea foot muscle GDH; test: NADH absorbance at […] nm, glutamate-oxidizing direction; settings: activation constant (half-maximal activation, not association constant); suboptimal substrates 10 mM L-glutamate, 0.5 mM NAD+; Tris-HCl pH 8.0
T1 construct: native enzyme purified from foot muscle of 10-day estivated snails on GTP-agarose; high-phosphate form, sites unknown

[2] = test system: T2, control Otala lactea foot muscle GDH; test: as above; settings: activation constant (half-maximal activation, not association constant); suboptimal substrates 10 mM L-glutamate, 0.5 mM NAD+; Tris-HCl pH 8.0
T2 construct: native enzyme purified from foot muscle of active (control) snails on GTP-agarose; low-phosphate form, sites unknown

[3] = test system: T2, control Otala lactea foot muscle GDH; test: NADH absorbance at […] nm, glutamate-synthesizing direction; settings: activation constant (half-maximal activation, not association constant); suboptimal substrates 0.2 mM α-ketoglutarate, 0.15 mM NADH, 40 mM NH4Cl; HEPES pH 7.2
[4] = test system: T2, control Otala lactea foot muscle GDH; test: as above; settings: inhibitor; suboptimal substrates 0.2 mM α-ketoglutarate, 0.15 mM NADH, 40 mM NH4Cl; HEPES pH 7.2
[5] = test system: T1, 10 day estivated Otala lactea foot muscle GDH; test: as above; settings: inhibitor; suboptimal substrates 0.2 mM α-ketoglutarate, 0.15 mM NADH, 40 mM NH4Cl; HEPES pH 7.2
[6] = test system: T2, control Otala lactea foot muscle GDH; test: NADH absorbance at […] nm, glutamate-oxidizing direction; settings: no ADP, Tris-HCl pH 8.0
[7] = test system: T1, 10 day estivated Otala lactea foot muscle GDH; test: as above; settings: no ADP, Tris-HCl pH 8.0
[8] = test system: T2, control Otala lactea foot muscle GDH; test: NADH absorbance at […] nm, glutamate-synthesizing direction; settings: no ADP, 0.2 mM NADH, HEPES pH 7.2
[9] = test system: T1, 10 day estivated Otala lactea foot muscle GDH; test: as above; settings: no ADP; optimal co-substrates 100 mM NH4Cl, 0.2 mM NADH; HEPES pH 7.2
[10] = optimal co-substrate 1.5 mM NAD+
[11] = optimal co-substrate 50 mM L-glutamate

EC50 [1]: 3.5 ± 0.5 µM
EC50 [2]: 4.7 ± 0.7 µM
Compound: Nc1ncnc2c1ncn2[C@@H]1O[C@H](COP(=O)(O)OP(=O)(O)O)[C@@H](O)[C@H]1O [ADP]

EC50 [3]: 270 ± 40 µM
Compound: Nc1ncnc2c1ncn2[C@@H]1O[C@H](COP(=O)(O)O)[C@@H](O)[C@H]1O [AMP]

IC50 [4]: 7000 ± 1000 µM
Compound: Nc1ncnc2c1ncn2[C@@H]1O[C@H](COP(=O)(O)OP(=O)(O)OP(=O)(O)O)[C@@H](O)[C@H]1O [ATP]

IC50 [4]: 0.34 ± 0.02 µM
IC50 [5]: 0.15 ± 0.02 µM
Compound: Nc1nc2c(ncn2[C@@H]2O[C@H](COP(=O)(O)OP(=O)(O)OP(=O)(O)O)[C@@H](O)[C@H]2O)c(=O)[nH]1 [GTP]

Km [6, 10]: 900 ± 20 µM
Km [7, 10]: 840 ± 20 µM
Compound: N[C@@H](CCC(=O)O)C(=O)O [L-glutamate]

Km [6, 11]: 590 ± 80 µM
Km [7, 11]: 490 ± 20 µM
Compound: NC(=O)c1ccc[n+]([C@@H]2O[C@H](COP(=O)(O)OP(=O)(O)OC[C@H]3O[C@@H](n4cnc5c(N)ncnc54)[C@H](O)[C@@H]3O)[C@@H](O)[C@H]2O)c1 [NAD^+]

Km ([8]; optimal co-substrates 1 mM α-ketoglutarate): 63000 ± 2000 µM
Compound: N [NH4 ^+]

Km ([8]; optimal co-substrates 100 mM NH4Cl): 190 ± 30 µM
Km [9]: 550 ± 50 µM
Compound: O=C(O)CCC(=O)C(=O)O [α-ketoglutarate]
